Results from patent publication EP1247803A2, “Indolinone compounds suitable for modulation of protein kinases” (Sugen, Inc., priority 1996, dated 1998).

What was measured:
EGFR = molecular target: T1, EGFR (Homo sapiens, UniProt P00533); test: EGFR ELISA assay (in vitro kinase activity, EGFR captured from A431 cell lysate); assay type: biochemical; parameters: concentration or dose not given beside the values
T1 construct: Add 7 ug A431 cell lysate per well (EGFR source); endogenous in cells; host or cells: A431
T1 sequence (P00533 25-1210): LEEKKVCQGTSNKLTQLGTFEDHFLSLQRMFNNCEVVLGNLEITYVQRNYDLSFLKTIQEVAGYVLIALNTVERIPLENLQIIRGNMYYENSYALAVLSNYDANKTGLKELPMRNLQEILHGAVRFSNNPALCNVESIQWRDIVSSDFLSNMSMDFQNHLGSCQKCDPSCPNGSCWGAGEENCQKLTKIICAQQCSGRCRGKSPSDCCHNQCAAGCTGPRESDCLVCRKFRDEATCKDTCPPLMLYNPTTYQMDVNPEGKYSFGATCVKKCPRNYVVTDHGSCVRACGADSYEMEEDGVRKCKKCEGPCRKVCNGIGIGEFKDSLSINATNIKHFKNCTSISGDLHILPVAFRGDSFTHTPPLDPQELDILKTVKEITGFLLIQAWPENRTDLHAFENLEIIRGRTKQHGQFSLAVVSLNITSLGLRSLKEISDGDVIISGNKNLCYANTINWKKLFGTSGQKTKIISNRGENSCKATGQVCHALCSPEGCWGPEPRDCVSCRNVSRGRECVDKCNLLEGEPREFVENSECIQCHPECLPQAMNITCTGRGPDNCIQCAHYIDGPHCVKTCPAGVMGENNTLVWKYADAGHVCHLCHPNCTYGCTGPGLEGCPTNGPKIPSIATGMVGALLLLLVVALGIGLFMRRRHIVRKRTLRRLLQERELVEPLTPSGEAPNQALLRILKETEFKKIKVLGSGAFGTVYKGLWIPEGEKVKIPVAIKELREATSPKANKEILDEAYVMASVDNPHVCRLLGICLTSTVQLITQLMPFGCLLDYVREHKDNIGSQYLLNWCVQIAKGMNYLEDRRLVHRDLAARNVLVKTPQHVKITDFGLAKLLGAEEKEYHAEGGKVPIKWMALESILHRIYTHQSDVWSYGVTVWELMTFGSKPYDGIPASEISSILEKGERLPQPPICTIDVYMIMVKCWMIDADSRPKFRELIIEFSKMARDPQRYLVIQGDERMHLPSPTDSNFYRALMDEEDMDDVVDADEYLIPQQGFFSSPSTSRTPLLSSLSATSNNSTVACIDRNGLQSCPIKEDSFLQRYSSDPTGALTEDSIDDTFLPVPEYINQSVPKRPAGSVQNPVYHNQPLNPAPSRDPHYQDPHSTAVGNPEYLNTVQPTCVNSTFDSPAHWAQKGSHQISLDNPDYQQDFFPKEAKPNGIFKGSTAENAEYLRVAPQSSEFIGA
Method in brief: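 EGFR from A431 lysate was captured on plates coated with anti-EGFR antibody. Compounds were added 30 min before a 5 min phosphorylation with 3 µM ATP/5 mM MnCl2, which was stopped with 20 mM EDTA. Phosphotyrosine was detected with rabbit anti-phosphotyrosine, then a peroxidase-conjugated secondary and ABTS/H2O2, read at 410 nm.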

MET = MET biochemical kinase assay; parameters: species or system human; concentration or dose not given beside the values
Method in brief: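 Human MET was captured from cell lysates onto ELISA plates via goat anti-rabbit Fc and rabbit polyclonal antibody to the MET cytoplasmic domain. After washing, test compounds and kinase buffer with ATP and divalent metal ions were added. Phosphotyrosine was detected with HRP-conjugated anti-phosphotyrosine antibody and TMB colorimetric read-out.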

## O=C1Nc2ccc(S(=O)(=O)Nc3ccc(C(F)(F)F)cc3)cc2C1=Cc1csc([N+](=O)[O-])c1 [10722/E09]
EGFR
  Biochem EGFR %Inhibition: 4.1%
MET
  Met Kinase % Inhibition: 55.1%

## O=C1Nc2ccc(S(=O)(=O)Nc3ccc(C(F)(F)F)cc3)cc2C1=Cc1cc([N+](=O)[O-])cc(CCl)c1O [10721/E06]
EGFR
  Biochem EGFR %Inhibition: 91.5%
MET
  Met Kinase % Inhibition: 81.0%

## CC(C)(C)c1cc(C=C2C(=O)Nc3ccc(I)cc32)cc([N+](=O)[O-])c1O [10722/B02]
EGFR
  Biochem EGFR %Inhibition: 16.3%
MET
  Met Kinase % Inhibition: 44.3%

## CC(C)(C)c1cc(C=C2C(=O)Nc3c(Br)cc(Br)cc32)cc([N+](=O)[O-])c1O [10722/A02]
EGFR
  Biochem EGFR %Inhibition: 23.7%
MET
  Met Kinase % Inhibition: 44.9%

## CCCCN(CCCC)c1ccc(C=C2C(=O)Nc3ccc(I)cc32)cc1 [10722/B10]
EGFR
  Biochem EGFR %Inhibition: -11.3%
MET
  Met Kinase % Inhibition: 56.4%

## CC(C)(C)c1cc(C=C2C(=O)Nc3c(Br)cc(Br)cc32)cc(Cl)c1O [10722/A08]
EGFR
  Biochem EGFR %Inhibition: 23.9%
MET
  Met Kinase % Inhibition: 70.5%

## CNS(=O)(=O)c1ccc2c(c1)C(=Cc1ccc(F)cc1)C(=O)N2 [10717/D05]
EGFR
  Biochem EGFR %Inhibition: -2.8%
MET
  Met Kinase % Inhibition: 23.8%

## Cn1cc(Cl)c(C=C2C(=O)Nc3ccc(CCCl)cc32)n1 [10721/G03]
EGFR
  Biochem EGFR %Inhibition: 23.4%
MET
  Met Kinase % Inhibition: 25.3%

## CC(C)(C)c1cc(C=C2C(=O)Nc3ccc(S(=O)(=O)Nc4ccc(C(F)(F)F)cc4)cc32)cc(Cl)c1O [10722/E08]
EGFR
  Biochem EGFR %Inhibition: 10.4%
MET
  Met Kinase % Inhibition: 82.8%

## Cn1c(C=C2C(=O)Nc3ccc(S(=O)(=O)N4CCOCC4)cc32)nc2ccccc21 [10721/F02]
EGFR
  Biochem EGFR %Inhibition: 11.0%
MET
  Met Kinase % Inhibition: 27.8%

## CNS(=O)(=O)c1ccc2c(c1)C(=Cc1c[nH]c3ccccc13)C(=O)N2 [10717/D06]
EGFR
  Biochem EGFR %Inhibition: -23.4%
MET
  Met Kinase % Inhibition: 33.8%

## CNS(=O)(=O)c1ccc2c(c1)C(=Cc1ccc(F)cc1F)C(=O)N2 [10722/D06]
EGFR
  Biochem EGFR %Inhibition: -2.5%
MET
  Met Kinase % Inhibition: 32.4%

## Cn1cc(Cl)c(C=C2C(=O)Nc3ccc(S(=O)(=O)Nc4ccc(C(F)(F)F)cc4)cc32)n1 [10721/E03]
EGFR
  Biochem EGFR %Inhibition: 25.1%
MET
  Met Kinase % Inhibition: 12.3%

## O=C1Nc2ccc(S(=O)(=O)N3CCOCC3)cc2C1=Cc1cc([N+](=O)[O-])cc(CCl)c1O [10721/F06]
EGFR
  Biochem EGFR %Inhibition: 21.7%
MET
  Met Kinase % Inhibition: 80.3%

## O=C1Nc2ccc(S(=O)(=O)N3CCOCC3)cc2C1=Cc1ccc(Cl)s1 [10721/F07]
EGFR
  Biochem EGFR %Inhibition: 3.5%
MET
  Met Kinase % Inhibition: 55.7%

## CNS(=O)(=O)c1ccc2c(c1)C(=Cc1ccc(C(=O)O)cc1)C(=O)N2 [10722/D05]
EGFR
  Biochem EGFR %Inhibition: -3.8%
MET
  Met Kinase % Inhibition: 35.8%

## CCCCN(CCCC)c1ccc(C=C2C(=O)Nc3ccc(S(=O)(=O)Nc4ccc(C(F)(F)F)cc4)cc32)cc1 [10722/E10]
EGFR
  Biochem EGFR %Inhibition: -13.3%
MET
  Met Kinase % Inhibition: 86.6%

## CC(C)(C)c1cc(C=C2C(=O)Nc3ccc(S(=O)(=O)N4CCOCC4)cc32)cc(Br)c1O [10721/F10]
EGFR
  Biochem EGFR %Inhibition: 7.5%
MET
  Met Kinase % Inhibition: 79.9%

## CNS(=O)(=O)c1ccc2c(c1)C(=Cc1c(O)cccc1OC)C(=O)N2 [10717/D10]
EGFR
  Biochem EGFR %Inhibition: 3.5%
MET
  Met Kinase % Inhibition: 15.6%

## Cc1cc(C)c(C=C2C(=O)Nc3ccc(S(=O)(=O)N4CCOCC4)cc32)[nH]1 [10721/F08]
EGFR
  Biochem EGFR %Inhibition: 37.3%
MET
  Met Kinase % Inhibition: 76.1%

## CNS(=O)(=O)c1ccc2c(c1)C(=Cc1cc(Br)c(O)c(C(C)(C)C)c1)C(=O)N2 [10721/D10]
EGFR
  Biochem EGFR %Inhibition: 3.3%
MET
  Met Kinase % Inhibition: 13.4%

## CNS(=O)(=O)c1ccc2c(c1)C(=Cc1ccc(Br)cc1)C(=O)N2 [10717/D08]
EGFR
  Biochem EGFR %Inhibition: -7.8%
MET
  Met Kinase % Inhibition: 16.0%

## CNS(=O)(=O)c1ccc2c(c1)C(=Cc1ccc([N+](=O)[O-])s1)C(=O)N2 [10722/D04]
EGFR
  Biochem EGFR %Inhibition: 20.3%
MET
  Met Kinase % Inhibition: 63.4%

## Cn1c(C=C2C(=O)Nc3ccc(CCCl)cc32)nc2ccccc21 [10721/G02]
EGFR
  Biochem EGFR %Inhibition: 23.6%
MET
  Met Kinase % Inhibition: 7.9%

## O=C1Nc2ccc(CCCl)cc2C1=Cc1cc([N+](=O)[O-])cc(CCl)c1O [10721/G06]
EGFR
  Biochem EGFR %Inhibition: 23.2%
MET
  Met Kinase % Inhibition: 39.5%

## Cc1cc(C)c(C=C2C(=O)Nc3ccc(CCCl)cc32)[nH]1 [10721/G08]
EGFR
  Biochem EGFR %Inhibition: 12.8%
MET
  Met Kinase % Inhibition: -2.4%

## Cc1cc(C)c(C=C2C(=O)Nc3ccc(S(=O)(=O)Nc4ccc(C(F)(F)F)cc4)cc32)[nH]1 [10721/E08]
EGFR
  Biochem EGFR %Inhibition: 29.8%
MET
  Met Kinase % Inhibition: 39.5%

## O=C1Nc2c(Br)cc(Br)cc2C1=Cc1ccc([N+](=O)[O-])s1 [10722/A04]
EGFR
  Biochem EGFR %Inhibition: 21.0%
MET
  Met Kinase % Inhibition: 51.4%

## CNS(=O)(=O)c1ccc2c(c1)C(=Cc1cc([N+](=O)[O-])c(O)c(C(C)(C)C)c1)C(=O)N2 [10722/D02]
EGFR
  Biochem EGFR %Inhibition: 26.1%
MET
  Met Kinase % Inhibition: 26.4%

## O=C1Nc2ccc(S(=O)(=O)Nc3ccc(C(F)(F)F)cc3)cc2C1=Cc1ccc(Cl)s1 [10721/E07]
EGFR
  Biochem EGFR %Inhibition: 37.7%
MET
  Met Kinase % Inhibition: 43.6%

## O=C1Nc2ccc(CCCl)cc2C1=Cc1ccc(Cl)s1 [10721/G07]
EGFR
  Biochem EGFR %Inhibition: 14.7%
MET
  Met Kinase % Inhibition: 10.0%
